Laboratory results reported in US20240385182A1, “MASKED FLUOROGENIC LIPID COMPOUNDS, LIPID PARTICLES COMPRISING THE SAME, AND METHODS OF USE THEREOF” (Rutgers, The State University of New Jersey, priority 2023, published 2024).
“Also recorded” adds a separate entry of the source.

Columns and labels:
HeLa cells = assay: Confocal imaging and colocalization in live HeLa cells; type: cell-based; settings: for fluorescence at 405/475 nm: LNPs
Description: FIGS. 9A-9E: confocal imaging of lipid environments targeted by ONOO^− in live HeLa cells. Cells were seeded into glass microscope dishes, incubated with LNPs (50 μM) and stained with organelle trackers and/or actin dye prior to imaging. LNPs obtained from a 47.5:47.5:5.0 molar ratio of DOTMA, DOPE, and DPPC-TC-ONOO^−. FIG. 9A: cells treated with LNPs, stimulated with IFN-γ/LPS/PMA. Time coarse images acquired upon PMA treatment. FIG. 9B: cells treated with LNPs and 1400 W. FIG. 9C: cells treated with LNPs, then with 1400 W and IFN-γ/LPS/PMA. FIGS. 9D-9E: quantitative colocalization study of cells treated with LNPs and stimulated with IFN-γ/LPS/PMA. Pearson's correlation coefficient (PCC) was calculated for quantitative assessment. Organelle trackers: ER-Tracker™, MitoTracker™, CellLight™ Golgi-RFP, LysoTracker™. Cell cytoskeleton was assessed with CellMask™ Deep Red Actin Tracking Stain. DPPC-TC channel: 405/475 nm. Scale bars=20 μm (FIGS. 9A-9D) or 5 μm (FIG. 9E). With the utility of DPPC-TC-ONOO^− proven in synthetic protocell membranes, incorporation into live HeLa and RAW 264.7 cells was sought, which are relevant to redox-induced stress and have well-recognized pathways for RNS and ROS production. Lipid nanoparticles (LNPs) (˜100 nm in diameter) was used to deliver DPPC-TC-ONOO− into cells. This method circumvented the limited solubility of DPPC-TC-ONOO− due to the relatively hydrophobic butanone-coumarin motif. LNPs were obtained via sonication from 1,2-di-O-octadecenyl-3-trimethylammonium propane (DOTMA), 1,2-dioleoyl-sn-glycero-3-phosphoethanolamine (DOPE), and DPPC-TC-ONOO− (47.5:47.5:5.0 molar ratio), which were hydrated with a 300 mM sucrose solution. DOTMA and DOPE were chosen as the carrier lipids due to their cationic/zwitterionic natures, which has been postulated to enhance uptake through the cell membrane. The impact of different LNP compositions and incubation times on the cellular incorporation of DPPC-TC-ONOO^− was assessed. […] Specifically, LNPs containing greater than 10 mol % DPPC-TC-ONOO− were considerably more heterogenous in size (up to […] observed, in contrast to ˜100 nm) and nonuniform in vesicle lamellarity. Those with less than 4 mol % DPPC-TC-ONOO− led to insufficient fluorescence signal. To balance these counteracting factors, 5 mol % DPPC-TC-ONOO− was used, with 47.5 mol % DOTMA and DOPE, each. In these initial assays, cells were incubated with LNPs for up to 15 hours to complete the uptake and intracellular localization of DPPC-TC-ONOO−. Shorter incubation times (3-to-5 hours) led to its uptake but not subcellular localization. […] However, high serum concentration in DMEM caused interference between LNPs and serum-protein, resulting in aggregate formation as observed by microscopy. To overcome this obstacle, LNPs (50 μM) were used in a mixture of 2/3 volumetric ratio of sucrose solution and Opti-MEM™, a reduced serum medium known to increase the efficiency of lipofection. […] For a physiologically relevant stress model, the standard stimulation condition involving IFN-γ/LPS/PMA was employed. Treatment of cells with IFN-γ/LPS leads to the endogenous production of nitric oxide and PMA provokes increased levels of superoxide. These two reactive species combine to form peroxynitrite, as described elsewhere herein. […] The intracellular redox selectivity of DPPC-TC-ONOO^− was also assessed using N-(3-(aminomethyl)benzyl)-acetamidine, known as 1400 W, which inhibits the production of NO· by irreversibly binding to iNOS. […] To determine whether DPPC-TC-ONOO^− localizes and functions at a specific subcellular compartment in HeLa, a comprehensive colocalization study was performed with dyes specific for lipid-rich and membrane-enclosed organelles, including the ER, mitochondrion, Golgi apparatus, and lysosome (FIGS. 9D-9E). In addition, actin stain was used to gain a visual insight into the cytoskeletal structure of the whole cell. […]

[1] = Confocal imaging of giant vesicles containing DPPC-TC-ONOO^− treated with redox species
Description: FIG. 8A: conceptual illustration of function of the model protocell. FIG. 8B: confocal images acquired for untreated (top panel) and peroxynitrite-treated (middle and bottom panels) GVs. FIG. 8C: confocal images acquired for GVs treated with other RNS and ROS. FIGS. 8B-8C: vesicles were prepared from POPC (98.5%, molar ratio) and DPPC-TC-ONOO^− (1%) via electroformation. Liss-Rhod PE dye (red, 560 nm excitation) was used at 0.5 mol % to label vesicle membranes. […] Scale bar=5 μm. In most biomimetic systems that rely on compartmentalization, physical membrane boundaries are comprised of self-assembled lipids. Biomimetic membranes can be represented by GVs, which have dimensional properties (1-30 μm in diameter) relevant to those of mammalian cells (10-100 μm), display physical characteristics feasible for confocal fluorescence imaging, and are utilized for bottom-up construction of biomimetic systems. […] Given the longer timescale required for data acquisition in microscopy compared to fluorescence measurements by plate reader, the pH of imaging buffers was set to 8.5, which extended the lifetime of peroxynitrite. […] Vesicle size distribution was analyzed by dynamic light scattering (DLS), confirming the presence of GVs. […] GVs were then imaged using fluorescence confocal microscopy. […]

HeLa and RAW 264.7 cells = assay: MTT cell viability assay; type: cell-based; settings: 8-250 μM, 24-hour period
Description: With a feasible liposome preparation and treatment protocol established for live cell imaging, attention was turned to assessing the cytocompatibility of the LNPs, with or without DPPC-TC-ONOO^−, DPPC-TC, and the oxa-spiro[4,5] decenone 6a. A standard 3-(4,5-dimethylthiazol-2-yl)-2,5-diphenyl tetrazolium bromide (MTT) cell viability assay in HeLa and RAW 264.7 cells treated with these molecules (8-250 μM) over a 24-hour period. The dose-response curves provided high IC50 values for each compound: DPPC-TC-ONOO− (≥100 μM), DPPC-TC (≥50 μM), and 6 (≥70 μM).

IC50 (HeLa and RAW 264.7 cells): ≥ 100 µM
Compound: CCCCCCCCCCCCCCCC(=O)OCC(COP(=O)([O-])OCC[N+](C)(C)Cc1cn(-c2cc3ccc(OC(=O)Oc4ccc(CCC(=O)C(F)(F)F)cc4)cc3oc2=O)nn1)OC(=O)CCCCCCCCCCCCCCC (racemic) [DPPC-TC-ONOO^−]
signal in the DPPC-TC channel (HeLa cells; 1400 W only or 1400 W and IFN-γ/LPS/PMA): no observable signal | Pearson's correlation coefficient (PCC) (HeLa cells; DPPC-TC signal vs ER-Tracker Green): 0.938 | fluorescence at 405/475 nm (HeLa cells; no stimulation): no observable signal | fluorescence at 405/475 nm (HeLa cells; stimulation with IFN-γ/LPS/PMA): substantial increase in fluorescence | colocalization correlation (HeLa cells; dyes specific for Golgi, mitochondria, and lysosomes): less significant correlation | time point at which intracellular fluorescence was observable upon PMA addition (HeLa cells; post IFN-γ/LPS stimulation, earliest possible image acquisition time): 3 min | GV membrane fluorescence at 405 nm excitation ([1]; GVs of POPC and DPPC-TC-ONOO^− (~99:1), ONOO^− 100 μM): substantial increase in membrane fluorescence; also recorded: strong fluorescence | GV fluorescence at 405 nm excitation ([1]; GVs of POPC and DPPC-TC-ONOO^−, other redox species (NO·, H2O2, HO·, ^1O2, O2·^−) 100 μM, 5 min): essentially no fluorescence generation; also recorded: minimal fluorescence
